According to ChEMBL document CHEMBL5331140, “Discovery of IACS-52825, a Potent and Selective DLK Inhibitor for Treatment of Chemotherapy-Induced Peripheral Neuropathy” (J Med Chem, 2023):
Values after ≈ are worked out from the molar mass of the structure shown.

Legend:
[1] = Volume of distribution at steady state in Beagle dog at 1 mg/kg, po or 0.3 mg/kg, iv measured for 24 hrs by LC-MS/MS analysis; type: ADME, organism-based, Canis lupus familiaris; conditions: in vivo
[2] = Metabolic stability in dog hepatocytes assessed as intrinsic clearance at 2 uM measured for 120 mins by LC-MS analysis; type: ADME, cell-based, Canis lupus familiaris, Hepatocyte; conditions: read-out: CLH
[3] = Cmax in Beagle dog at 1 mg/kg, po or 0.3 mg/kg, iv measured for 24 hrs by LC-MS/MS analysis; type: ADME, organism-based, Canis lupus familiaris; parameters: time 24 hrs, dose 1 mg/kg, route po; conditions: in vivo
[4] = target: Voltage-gated inwardly rectifying potassium channel KCNH2 (Homo sapiens, UniProt Q12809)
Description: Inhibition of hERG expressed in CHO cells at -80 mV holding potential by QPatch automated electrophysiology assay

[5] = AUClast in C57BL/6 mouse at 10 mg/kg administered via oral gavage and measured for 24 hrs by LC-MS/MS analysis; type: ADME, organism-based; parameters: time 24 hrs, dose 10 mg/kg, route po; conditions: in vivo
[6] = Metabolic stability in human liver microsomes assessed as intrinsic clearance at 1 uM in presence of NADPH regenerating system measured for 45 mins by LC-MS/MS analysis; type: ADME, Microsome; conditions: read-out: CLH
[7] = Protein binding in mouse brain homogenate incubated for 5 hrs by UPLC-MS/MS analysis; type: ADME, tissue-based; conditions: read-out: PB (converted)
[8] = AUClast in Sprague-Dawley rat at 3 mg/kg, po or 1 mg/kg, iv measured for 24 hrs by LC-MS/MS analysis; type: ADME, organism-based; parameters: time 24 hrs, dose 3 mg/kg, route po; conditions: in vivo
[9] = Toxicity in rat measured after 14 days by IND-enabling study; conditions: in vivo, 336 h, time 14 day
[10] = Thermodynamic aqueous solubility of compound in FaSSIF at pH 6.5 incubated for 1 hr under shaking condition by LC-MS/MS analysis; type: physicochemical; conditions: read-out: Therm_solubility
[11] = Volume of distribution at steady state in C57BL/6 mouse at 0.3 mg/kg, iv administered via tail vein and measured for 24 hrs by LC-MS/MS analysis; type: ADME, organism-based; conditions: in vivo, read-out: Vdss
[12] = Thermodynamic aqueous solubility of compound in FaSSGF at pH 1.6 incubated for 1 hr under shaking condition by LC-MS/MS analysis; type: physicochemical; conditions: read-out: Therm_solubility
[13] = Ratio of unbound drug concentration in C57BL/6 mouse brain to plasma at 0.3 mg/kg, iv measured for 24 hrs by LC-MS/MS analysis; type: ADME, organism-based; conditions: brain and plasma, read-out: K(p,uu,brain)
[14] = Thermodynamic aqueous solubility of compound in phosphate buffer at pH 7 incubated for 1 hr under shaking condition by LC-MS/MS analysis; type: physicochemical; conditions: read-out: Therm_solubility
[15] = Metabolic stability in rat liver microsomes assessed as intrinsic clearance at 1 uM in presence of NADPH regenerating system measured for 45 mins by LC-MS/MS analysis; type: ADME, Microsome; conditions: read-out: CLH
[16] = Half life in Beagle dog at 1 mg/kg, po or 0.3 mg/kg, iv measured for 24 hrs by LC-MS/MS analysis; type: ADME, organism-based, Canis lupus familiaris; conditions: in vivo
[17] = target: Cytochrome P450 2C19 (Homo sapiens, UniProt P33261); assay: Inhibition of CYP2C19 in human liver microsomes using S-mephenytoin as substrate incubated for 45 mins in presence of NADPH by LC-MS/MS analysis; type: ADME, Microsome
[18] = Permeability in MDCK-MDR1 cells across apical to basolateral side at 5 uM incubated for 90 mins by LC-MS/MS analysis; type: ADME, cell-based, Canis lupus familiaris; conditions: dog, read-out: permeability
[19] = target: Cytochrome P450 2C9 (Homo sapiens, UniProt P11712); assay: Inhibition of CYP2C9 in human liver microsomes using diclofenac as substrate incubated for 10 mins in presence of NADPH by LC-MS/MS analysis; type: ADME, Microsome
[20] = Metabolic stability in rat hepatocytes assessed as intrinsic clearance at 2 uM measured for 120 mins by LC-MS analysis; type: ADME, cell-based, Hepatocyte; conditions: read-out: CLH
[21] = target: Cytochrome P450 2D6 (Homo sapiens, UniProt P10635); assay: Inhibition of CYP2D6 in human liver microsomes using bufuralol as substrate incubated for 10 mins in presence of NADPH by LC-MS/MS analysis; type: ADME, Microsome
[22] = Binding affinity to full length human DLK (1 to 859 residues)/NFkappaB DNA binding domain (unknown origin) fusion protein transfected in HEK293 cells assessed as dissociation constant incubated for 1 hr by Kinomescan assay; type: cell-based
[23] = target: Cytochrome P450 3A4 (Homo sapiens, UniProt P08684); assay: Inhibition of CYP3A4 in human liver microsomes using testosterone as substrate incubated for 5 mins in presence of NADPH by LC-MS/MS analysis; type: ADME, Microsome
[24] = Plasma protein binding in dog at 5 uM incubated for 5 hrs by rapid equilibrium dialysis method; type: ADME, cell-free, Canis lupus familiaris; conditions: read-out: PPB (converted)
[25] = Half life in C57BL/6 mouse at 0.3 mg/kg, iv administered via tail vein and measured for 24 hrs by LC-MS/MS analysis; type: ADME, organism-based; conditions: in vivo
[26] = Plasma protein binding in mouse at 5 uM incubated for 5 hrs by rapid equilibrium dialysis method; type: ADME, cell-free; conditions: read-out: PPB (converted)
[27] = Metabolic stability in monkey liver microsomes assessed as intrinsic clearance at 1 uM in presence of NADPH regenerating system measured for 45 mins by LC-MS/MS analysis; type: ADME, Macaca mulatta, Microsome; conditions: rhesus monkey, read-out: CLH

Chain of Cytochrome P450 2C19 (P33261 whole entry): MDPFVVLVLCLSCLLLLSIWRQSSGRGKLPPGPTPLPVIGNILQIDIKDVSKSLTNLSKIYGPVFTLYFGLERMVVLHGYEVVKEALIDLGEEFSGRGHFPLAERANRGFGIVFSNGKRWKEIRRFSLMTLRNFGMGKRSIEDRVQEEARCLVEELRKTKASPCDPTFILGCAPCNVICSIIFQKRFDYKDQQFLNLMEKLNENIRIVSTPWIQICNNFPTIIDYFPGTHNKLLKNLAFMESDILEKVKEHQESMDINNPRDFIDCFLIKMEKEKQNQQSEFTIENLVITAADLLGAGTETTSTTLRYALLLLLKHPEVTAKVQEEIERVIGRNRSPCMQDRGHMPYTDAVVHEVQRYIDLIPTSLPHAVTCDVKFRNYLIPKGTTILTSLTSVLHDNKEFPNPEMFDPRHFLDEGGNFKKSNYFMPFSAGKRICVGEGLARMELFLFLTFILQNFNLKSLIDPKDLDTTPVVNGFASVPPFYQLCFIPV
Chain of Voltage-gated inwardly rectifying potassium channel KCNH2 (Q12809 whole entry): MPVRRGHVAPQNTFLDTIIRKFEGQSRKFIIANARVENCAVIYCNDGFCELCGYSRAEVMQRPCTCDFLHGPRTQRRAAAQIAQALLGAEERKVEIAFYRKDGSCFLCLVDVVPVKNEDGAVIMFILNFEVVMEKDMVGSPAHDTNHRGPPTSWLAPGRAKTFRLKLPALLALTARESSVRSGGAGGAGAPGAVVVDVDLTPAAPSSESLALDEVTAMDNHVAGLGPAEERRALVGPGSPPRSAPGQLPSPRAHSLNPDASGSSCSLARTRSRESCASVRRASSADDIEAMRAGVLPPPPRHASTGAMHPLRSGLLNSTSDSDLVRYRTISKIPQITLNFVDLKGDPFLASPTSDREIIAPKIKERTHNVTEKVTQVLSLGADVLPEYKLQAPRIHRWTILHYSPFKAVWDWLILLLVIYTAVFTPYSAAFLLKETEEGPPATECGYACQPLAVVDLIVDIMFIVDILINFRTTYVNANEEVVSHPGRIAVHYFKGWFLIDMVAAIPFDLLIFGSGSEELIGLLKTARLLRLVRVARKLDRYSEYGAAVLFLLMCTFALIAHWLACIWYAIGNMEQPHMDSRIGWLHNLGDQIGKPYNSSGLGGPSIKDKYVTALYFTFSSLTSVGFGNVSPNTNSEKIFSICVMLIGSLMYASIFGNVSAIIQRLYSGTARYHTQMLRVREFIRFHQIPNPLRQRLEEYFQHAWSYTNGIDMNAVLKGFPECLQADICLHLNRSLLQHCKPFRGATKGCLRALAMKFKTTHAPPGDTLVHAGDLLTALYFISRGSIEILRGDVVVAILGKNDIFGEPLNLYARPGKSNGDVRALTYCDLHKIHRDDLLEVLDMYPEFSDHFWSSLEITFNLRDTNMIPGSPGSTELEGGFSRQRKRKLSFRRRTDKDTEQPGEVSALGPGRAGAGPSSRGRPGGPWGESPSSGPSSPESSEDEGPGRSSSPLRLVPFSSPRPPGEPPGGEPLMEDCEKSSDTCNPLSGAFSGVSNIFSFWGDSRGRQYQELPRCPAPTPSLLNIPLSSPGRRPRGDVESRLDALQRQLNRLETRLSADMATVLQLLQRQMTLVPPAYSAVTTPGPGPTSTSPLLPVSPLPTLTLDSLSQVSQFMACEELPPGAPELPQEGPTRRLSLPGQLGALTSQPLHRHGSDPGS
Chain of Cytochrome P450 3A4 (P08684 whole entry): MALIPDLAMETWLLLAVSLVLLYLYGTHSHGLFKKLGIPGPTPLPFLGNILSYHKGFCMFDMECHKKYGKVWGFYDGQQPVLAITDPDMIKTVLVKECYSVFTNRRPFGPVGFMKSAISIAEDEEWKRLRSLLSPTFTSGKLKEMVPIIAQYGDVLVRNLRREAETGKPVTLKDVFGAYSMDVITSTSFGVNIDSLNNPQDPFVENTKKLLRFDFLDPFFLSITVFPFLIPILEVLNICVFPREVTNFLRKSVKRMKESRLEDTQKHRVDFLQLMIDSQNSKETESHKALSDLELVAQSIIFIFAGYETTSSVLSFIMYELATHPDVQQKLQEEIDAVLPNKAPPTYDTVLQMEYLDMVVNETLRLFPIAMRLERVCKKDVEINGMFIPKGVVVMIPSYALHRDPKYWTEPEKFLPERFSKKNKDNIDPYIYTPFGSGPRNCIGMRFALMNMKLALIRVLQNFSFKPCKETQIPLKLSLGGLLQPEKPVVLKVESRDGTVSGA
Chain of Cytochrome P450 2C9 (P11712 whole entry): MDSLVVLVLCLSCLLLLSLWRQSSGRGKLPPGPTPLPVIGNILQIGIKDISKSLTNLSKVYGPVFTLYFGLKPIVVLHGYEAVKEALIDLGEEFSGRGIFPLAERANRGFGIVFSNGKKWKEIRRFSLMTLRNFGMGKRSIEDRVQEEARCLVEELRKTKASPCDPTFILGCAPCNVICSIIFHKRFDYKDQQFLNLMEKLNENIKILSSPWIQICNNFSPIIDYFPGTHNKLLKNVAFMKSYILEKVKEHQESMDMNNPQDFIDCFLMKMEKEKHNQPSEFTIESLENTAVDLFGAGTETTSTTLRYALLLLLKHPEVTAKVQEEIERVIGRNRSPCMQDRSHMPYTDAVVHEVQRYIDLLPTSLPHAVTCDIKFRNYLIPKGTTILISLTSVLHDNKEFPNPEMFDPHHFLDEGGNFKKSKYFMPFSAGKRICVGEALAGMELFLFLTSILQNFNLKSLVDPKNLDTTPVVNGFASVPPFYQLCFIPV
Chain of Cytochrome P450 2D6 (P10635 whole entry, the tested form may be a part): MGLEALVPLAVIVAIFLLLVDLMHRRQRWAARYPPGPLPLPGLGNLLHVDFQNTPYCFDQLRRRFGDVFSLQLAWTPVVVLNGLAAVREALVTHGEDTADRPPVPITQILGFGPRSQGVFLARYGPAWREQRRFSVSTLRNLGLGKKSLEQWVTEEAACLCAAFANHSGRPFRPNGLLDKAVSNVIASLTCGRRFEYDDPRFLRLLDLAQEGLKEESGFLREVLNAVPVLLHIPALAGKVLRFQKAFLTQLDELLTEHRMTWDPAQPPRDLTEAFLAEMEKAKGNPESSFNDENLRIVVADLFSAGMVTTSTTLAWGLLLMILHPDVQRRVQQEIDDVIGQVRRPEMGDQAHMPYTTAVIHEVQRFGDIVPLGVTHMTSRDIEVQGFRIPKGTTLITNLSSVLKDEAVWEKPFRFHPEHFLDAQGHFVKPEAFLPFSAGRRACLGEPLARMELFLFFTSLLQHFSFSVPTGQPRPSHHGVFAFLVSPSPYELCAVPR

SMILES: Nc1ncc(-c2cn(C34CC(F)(C3)C4)c([C@@H](O)C(F)(F)F)n2)cc1OC(F)(F)F
- Vdss [1]: 3.5 L/kg
- CLint scaled at 2 µM [2]: 9.2 mL/min/kg
- Cmax [3]: 1200 nM
- IC50 [4]: > 30 µM
- AUClast [5]: 111 µM·h
- CLint scaled at 1 µM [6]: 3 mL/min/kg
- fraction unbound at 5 h [7]: 0.039
- AUC(0-t) at 24 h [8]: 16.8 µM·h
- Activity [9]: Non-Toxic
- solubility thermodynamic at 1 h [10]: 38 µM (≈ 16.2 µg/mL)
- Vd [11]: 4.5 L/kg
- solubility thermodynamic at 1 h [12]: 20600 µM (≈ 8790 µg/mL)
- Kp uu at 24 h [13]: 0.92
- solubility thermodynamic at 1 h [14]: 33 µM (≈ 14.1 µg/mL)
- CLint scaled at 1 µM [15]: 16 mL/min/kg
- half-life [16]: 8.5 h
- IC50 [17]: > 10 µM
- Papp A→B at 1.5 h, 5 µM [18]: 43 ×10⁻⁶ cm/s
- IC50 [19]: > 10 µM
- CLint scaled at 2 µM [20]: 4.4 mL/min/kg
- IC50 [21]: > 10 µM
- Kd [22]: 0.0013 µM
- IC50 [23]: > 10 µM
- fraction unbound at 5 h, 5 µM [24]: 0.053
- half-life [25]: 13 h
- fraction unbound at 5 h, 5 µM [26]: 0.075
- CLint scaled at 1 µM [27]: 11 mL/min/kg
